Where “and” joins values, the source holds several entries; their conditions need not be identical. Equal entries are not always repeated.
What was measured:
[1] = system: CD4 cells; assay: Intracellular DNA content by propidium iodide staining (cell cycle); assay type: cell-based, human; conditions: 3×28 beads 24 hours; 10 to 100 ng/ml; FIG. 12
Procedure: Unstimulated and stimulated (3×28 bead stimulation) CD4 cells were incubated with varying concentrations FR901228 and the intracellular DNA content was measured by staining with propidium iodide (PI) using standard procedures. In brief, the cells were stained with a mixture of 1 μg/ml PI and 0.03% saponin in PBS for about 20 to 30 minutes. […] Accordingly, FR901228 appears to inhibit the cell cycle of activated T-cells prior to entry of S-phase.

[2] = system: activated T-cells (peripheral blood lymphocytes); assay: Proliferation inhibition assay, CFDA-SE staining; assay type: cell-based, human; conditions: added at time 0 or 24, 72, 120 hours post-stimulation with 3×28 beads; day 6; FIG. 7
Procedure: Peripheral blood lymphocytes are prepared as described above, stimulated with 3×28 beads and stained with carboxyfluorescein diacetate succinimidyl ester (CFDA-SE) at day 6 post stimulation. Cell stimulation was carried out as indicated above and the cells were washed twice with PBS and resuspended in media and incubated with CFDA-SE (Molecular Probes, OR). After about 10 minutes of staining, the cells are washed with media and FPS and dye incorporation was measured. FR901228 was added at various time points post-stimulation, at time 0 or at 24, 72, and 120 hours post-stimulation. FIG. 7 depicts flow data generated by CFDA-SE staining. The y-axis sets forth mean fluoresence intensity, which relates to the inverse of cell growth.

[3] = system: CD154 transcript; assay: RT-PCR of the CD154 transcript; assay type: cell-based; conditions: 18 hours of stimulation with 3×28 beads; data not shown
Procedure: In separate experiments, RT-PCR of the CD154 transcript was carried out after 18 hours of stimulation with 3×28 beads and various amounts of FR901228. […] Experiments were also conducted using CD4 cells incubated with anti-sense constructs of c-myc. After stimulation by 3×28 beads for twenty-four hours, the anti-sense c-myc construct reduced CD154 expression as measured by flow cytometry by about 50% as compared to controls including:no construct, sense or transfection with a scrambled c-myc construct (data not shown). Accordingly, FR901228 and like compounds may target the activity of c-myc and its induction of CD154 as one mechanism of immune suppression.

[4] = system: A1.1 T-cell hybridoma; conditions: Wang et al., Oncogene 1998; cited from earlier work
[5] = system: peripheral blood lymphocyte (PBL); assay: Proliferation by MTT assay, PBL cultures; assay type: cell-based, human
Procedure: Cells isolated from human blood are grown in X-vivo media (Biowhittaker Inc., Walkersville, Md.) and depending on use supplemented with or without 20 U/ml IL-2 (Boehringer Mannheim, Indianapolis, Ind.) and supplemented with 5% human serum (Biowhittaker), 2 mM Glutamine (Life Technologies, Rockville, Md.) and 20 mM HEPES (Life Technology). Jurkat E6-1 cells (ATCC, Manassas, Va.) are grown in RPMI 1640 (Life Technologies) supplemented with 10% fetal bovine serum (FBS) (Biowhittaker), 2 mM glutamine (Life Technologies), […] (Life Technologies), and […] (Life Technologies).
Buffy coats from healthy human volunteer donors are obtained (American Red Cross, Portland, Oreg.). Peripheral blood mononuclear cells (PBMC) are obtained using Lymphocyte Separation Media (ICN Pharmaceuticals, Costa Mesa, Calif.) according to the manufacturers' instructions.
Peripheral blood lymphocytes (PBL) are obtained from the PBMC fraction by incubation in a culture flask (Costar, Pittsburgh, Pa.) or with uncoated Dynabeads (Dynal, Oslo, Norway), 1×10^8 cells/ml, 2 beads/cell, 2 h at 37° C. Monocytes and macrophages are removed by adherence to the culture flask or phagocytoze the paramagnetic beads that are depleted by magnetic cell separation according to the manufacture's instruction (Dynal). […] The purity of CD4 cells are routinely 91–95% as measured by flow cytometry. […]

[6] = system: NODSCID mice; assay: Diabetes onset in NODSCID mice given NOD spleen cells; assay type: in vivo; conditions: 0.5 mg/kg i.p. every other day
Procedure: FR901228 was dissolved in 10% DMSO in PBS and were administered i.p. to NOD or NODSCID mice every other day. Controls contained only the DMSO excipient (10% DMSO in PBS). […] 0.5 mg/kg of FR901228 was administered at each treatment to twenty animals (ten NOD animals and ten NODSCID animals). Every two weeks the number of mice in each treatment group that had become diabetic was evaluated by measuring blood glucose levels using a glucometer at bi-weekly intervals. A reading of more than 200 mg/dl of blood glucose on two consecutive observations was considered indicative of frank diabetes.

With C/C=C1\NC(=O)[C@H]2CSSCC/C=C/[C@H](CC(=O)N[C@H](C(C)C)C(=O)N2)OC(=O)[C@H](C(C)C)NC1=O [FR901228] as the compound, how does the “DNA synthesis in stimulated CD4 cells” value [1] read?
The value was “DNA synthesis does not take place”.

What about the “cell growth of activated T-cells (CFDA-SE mean fluorescence intensity)” value [2] of the same compound?
The value was “inhibited”.

And the “levels of CD154 expression by RT-PCR” value [3]?
Its value is “reduced levels of CD154 expression with increasing amounts”.

And the “CD3-induced IL-2 production” value [4]?
Its value is “did not inhibit”.

What about the “inhibition of peripheral blood lymphocyte (PBL) proliferation” value ([5]; stimulation by beads having anti-CD3 and anti-CD28 antibodies, FIG. 1) of the same compound?
Its value is “dose dependent inhibition”.

And the “inhibition of peripheral blood lymphocyte (PBL) proliferation” value ([5]; stimulation with Ionomycin/PMA, FIG. 2)?
Its value is “dose dependent inhibition”.

What about the “delay of onset of frank diabetes versus excipient only” value ([6]; frank diabetes = more than 200 mg/dl on two consecutive observations) of the same compound?
The value was “at least two”.

What about the “blood glucose / status of single mouse, column 6 (5/9)” value ([6]; NODSCID, head 'age (wks.)' 6, one line per mouse) of the same compound?
Its value is 261 mg/dL.

And the “blood glucose / status of single mouse, (5/23)” value ([6]; NODSCID, head 'age (wks.)' 8, one line per mouse, 0.5 mg/kg)?
The value was 547 mg/dL and 527 mg/dL.

And the “blood glucose / status of single mouse, (6/6)” value ([6]; NODSCID, head 'age (wks.)' 10, one line per mouse, 0.5 mg/kg)?
The value was 482 mg/dL and 526 mg/dL and 343 mg/dL and 317 mg/dL and 299 mg/dL and 412 mg/dL and 441 mg/dL and 494 mg/dL and 399 mg/dL and 285 mg/dL.

What about the “blood glucose / status of single mouse, (6/20)” value ([6]; NODSCID, head 'age (wks.)' 12, one line per mouse, 0.5 mg/kg) of the same compound?
The value was “High (2×) and 566 mg/dl and 596 mg/dl and 568 mg/dl and 539 mg/dl and 338 mg/dl and 240 mg/dl and Dead and 576 mg/dl”.

And the “blood glucose / status of single mouse, 7/4” value ([6]; NODSCID, head 'age (wks.)' 14, one line per mouse, 0.5 mg/kg)?
The value was 536 mg/dl and 402 mg/dl and Dead (5×) and 494 mg/dl and 558 mg/dl.

What about the “blood glucose / status of single mouse, column 16 (7/18)” value ([6]; NODSCID, head 'age (wks.)' 16, one line per mouse) of the same compound?
Its value is 571 mg/dL.

And the “blood glucose / status of single mouse, column 18 (8/1)” value ([6]; NODSCID, head 'age (wks.)' 18, one line per mouse)?
The value was “Dead”.

— patent US7041639B2, “Depsipeptide and congeners thereof for use as immunosuppressants” (XCYTE Therapies, Inc., priority 1999, dated 2006)
